Literature values as cited in US20250295115A1, “USE OF HERBICIDAL COMPOSITIONS BASED ON L-GLUFOSINATE IN TOLERANT FIELD CROPS” (BASF SE, priority 2017, published 2025).

System: perennial weeds and brush
Conditions: as taught by U.S. Pat. No. 4,265,654

For CP(=O)(O)CC[C@H](N)C(=O)O (single isomer, unassigned) [L-isomer], which “Effectiveness compared with the racemic acid” value is on record?
Its value is “twice as effective”.
